From US11897862B2 (Gilead Sciences, Inc., priority 2022, dated 2024)
Each block holds one compound with its values, some of them ahead of it.

Key:
IKZF1 = target: T1, IKZF1 (Homo sapiens, UniProt Q13422+Q96SW2); assay: HEK293 HiBiT in vitro degradation of IKZF1; format: cell-based; conditions: for DC50 / IKZF1 Dmax: HEK293 HiBiT; for DC50: 18-24 hr incubation, normalized to DMSO control, read-out: IKZF1 EC50; for Dmax: HEK293, HEK293 HiBiT; for Dmax / IKZF1 Dmax: maximum degradation at the highest concentration tested
T1 construct: expressed in transfected cells
Outline: (§1)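 Flp-In T-REx HEK293 stable pools carry a single integrated copy of C-terminal HiBiT-tagged IKZF1, IKZF2 or SALL4 under a tetracycline operator, induced overnight at 37 °C with doxycycline ([…] final). Cells were then treated with serially diluted compounds for 18-24 h. Nano-Glo lytic luminescence gave EC50 and Dmax.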

IKZF2 = IKZF2 (Homo sapiens, UniProt Q96SW2+Q9UKS7); assay: HEK293 HiBiT in vitro degradation of IKZF2; format: cell-based; parameters: expressed in transfected cells; conditions: for Dmax: HEK293, HEK293 HiBiT; for Dmax / IKZF2 Dmax: maximum degradation at the highest concentration tested; for DC50 / IKZF2 Dmax: HEK293 HiBiT; for DC50: 18-24 hr incubation, normalized to DMSO control, read-out: IKZF2 EC50
Outline: as §1

T1 sequence (Q13422 whole entry): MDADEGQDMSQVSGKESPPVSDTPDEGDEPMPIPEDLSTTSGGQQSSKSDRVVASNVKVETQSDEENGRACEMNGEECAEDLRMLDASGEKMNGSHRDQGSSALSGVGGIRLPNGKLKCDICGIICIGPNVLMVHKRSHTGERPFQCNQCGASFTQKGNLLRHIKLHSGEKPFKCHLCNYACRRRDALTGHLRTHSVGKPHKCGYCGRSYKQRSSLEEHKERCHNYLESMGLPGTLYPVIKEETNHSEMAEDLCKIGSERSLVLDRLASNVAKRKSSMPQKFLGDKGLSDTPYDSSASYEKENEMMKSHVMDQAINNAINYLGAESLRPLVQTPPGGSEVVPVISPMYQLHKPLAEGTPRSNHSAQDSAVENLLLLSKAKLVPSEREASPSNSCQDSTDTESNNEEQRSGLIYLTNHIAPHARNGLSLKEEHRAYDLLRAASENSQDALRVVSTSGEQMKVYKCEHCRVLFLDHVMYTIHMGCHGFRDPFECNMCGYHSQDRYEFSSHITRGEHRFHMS
T1 sequence (Q96SW2 whole entry): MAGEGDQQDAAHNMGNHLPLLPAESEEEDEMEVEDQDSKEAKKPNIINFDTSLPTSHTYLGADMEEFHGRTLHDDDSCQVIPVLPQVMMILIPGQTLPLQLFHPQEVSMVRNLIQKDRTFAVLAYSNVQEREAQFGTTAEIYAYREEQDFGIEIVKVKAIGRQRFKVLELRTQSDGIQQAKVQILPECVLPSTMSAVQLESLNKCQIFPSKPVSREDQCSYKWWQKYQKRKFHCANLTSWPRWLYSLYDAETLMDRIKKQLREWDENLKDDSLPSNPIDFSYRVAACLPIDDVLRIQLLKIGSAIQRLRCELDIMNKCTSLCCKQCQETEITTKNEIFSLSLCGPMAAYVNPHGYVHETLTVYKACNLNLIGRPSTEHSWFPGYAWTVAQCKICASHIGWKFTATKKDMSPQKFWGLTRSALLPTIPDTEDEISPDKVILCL
T1 sequence (Q16531 whole entry partner): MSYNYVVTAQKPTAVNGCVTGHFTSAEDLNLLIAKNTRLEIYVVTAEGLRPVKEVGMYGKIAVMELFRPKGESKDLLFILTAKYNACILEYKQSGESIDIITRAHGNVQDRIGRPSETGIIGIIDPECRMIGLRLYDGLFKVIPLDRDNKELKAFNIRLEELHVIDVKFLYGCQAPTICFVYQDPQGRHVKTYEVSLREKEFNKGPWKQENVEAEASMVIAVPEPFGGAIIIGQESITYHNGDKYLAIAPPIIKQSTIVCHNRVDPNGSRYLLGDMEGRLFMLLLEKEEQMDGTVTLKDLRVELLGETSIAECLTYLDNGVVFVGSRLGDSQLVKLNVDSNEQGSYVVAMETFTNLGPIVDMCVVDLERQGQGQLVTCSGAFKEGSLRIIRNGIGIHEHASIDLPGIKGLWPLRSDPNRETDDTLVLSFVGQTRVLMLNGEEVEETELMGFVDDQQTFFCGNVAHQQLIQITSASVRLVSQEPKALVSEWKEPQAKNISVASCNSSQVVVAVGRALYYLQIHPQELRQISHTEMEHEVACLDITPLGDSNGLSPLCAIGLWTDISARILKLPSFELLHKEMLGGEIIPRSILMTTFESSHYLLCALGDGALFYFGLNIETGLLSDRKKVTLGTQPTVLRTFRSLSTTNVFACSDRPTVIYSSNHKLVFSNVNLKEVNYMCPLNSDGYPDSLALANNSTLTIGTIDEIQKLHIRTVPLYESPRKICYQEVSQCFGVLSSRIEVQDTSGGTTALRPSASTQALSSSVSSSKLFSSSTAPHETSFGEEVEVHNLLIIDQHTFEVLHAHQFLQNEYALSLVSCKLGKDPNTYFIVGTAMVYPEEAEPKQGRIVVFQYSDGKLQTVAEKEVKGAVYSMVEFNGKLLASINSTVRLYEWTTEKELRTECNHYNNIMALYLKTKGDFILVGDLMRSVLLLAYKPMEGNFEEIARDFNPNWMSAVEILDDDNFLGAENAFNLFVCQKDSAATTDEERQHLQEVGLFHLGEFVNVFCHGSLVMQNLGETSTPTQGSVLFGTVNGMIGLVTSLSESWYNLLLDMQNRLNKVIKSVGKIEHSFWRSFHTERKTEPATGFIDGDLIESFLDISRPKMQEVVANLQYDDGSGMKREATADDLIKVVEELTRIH
Chain of IKZF2 (Q9UKS7 1-500 isoform Q9UKS7-2): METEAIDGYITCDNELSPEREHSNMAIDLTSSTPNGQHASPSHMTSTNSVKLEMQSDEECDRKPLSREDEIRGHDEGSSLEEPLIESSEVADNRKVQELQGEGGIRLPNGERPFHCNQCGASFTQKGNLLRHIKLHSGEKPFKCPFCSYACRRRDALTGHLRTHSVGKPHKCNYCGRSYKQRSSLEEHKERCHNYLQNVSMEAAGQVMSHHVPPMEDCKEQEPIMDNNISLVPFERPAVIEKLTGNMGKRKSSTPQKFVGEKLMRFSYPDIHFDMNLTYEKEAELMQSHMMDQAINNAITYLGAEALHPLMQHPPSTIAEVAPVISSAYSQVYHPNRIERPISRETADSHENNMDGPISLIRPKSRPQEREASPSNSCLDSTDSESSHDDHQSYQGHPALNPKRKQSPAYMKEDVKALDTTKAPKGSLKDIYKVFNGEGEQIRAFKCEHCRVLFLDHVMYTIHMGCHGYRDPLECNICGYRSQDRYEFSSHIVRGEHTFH
Chain of IKZF2 (Q96SW2 whole entry): as the sequence (Q96SW2 whole entry) above
Chain of IKZF2 (Q16531 whole entry partner): as the sequence (Q16531 whole entry partner) above

Structure (SMILES): O=C1CCC(N2Cc3cc(C[C@H]4OCCC[C@@H]4NC4CCC(F)(F)CC4)ccc3C2=O)C(=O)N1 (stereo partly drawn) [Example 92, 3-(5-(((2R,3S)-3-((4,4-difluorocyclohexyl)amino)tetrahydro-2H-pyran-2-yl)methyl)-1-oxoisoindolin-2-yl)piperidine-2,6-dione]
DC50 (IKZF1): > 1000 nM
Dmax (IKZF2): 82%
DC50 (IKZF2): 44 nM

Structure (SMILES): O=C1CCC(N2Cc3cc(C[C@H]4CCCC[C@@H]4NC4CCCCC45CC5)ccc3C2=O)C(=O)N1 (stereo partly shown) [Example 228]
DC50 (IKZF1): > 1000 nM
Dmax (IKZF2): 94%
DC50 (IKZF2): 9 nM

Structure (SMILES): O=C1CCC(N2Cc3c(ccc(C[C@H]4CCCC[C@@H]4NCc4ccccc4)c3F)C2=O)C(=O)N1 (stereo partly drawn) [Example 11, 3-(5-(((1R,2S)-2-(benzylamino)cyclohexyl)methyl)-4-fluoro-1-oxoisoindolin-2-yl)piperidine-2,6-dione]
DC50 (IKZF1): > 1000 nM
Dmax (IKZF2): 98%
DC50 (IKZF2): 7 nM

Structure (SMILES): CCC(C)N[C@H]1CCCO[C@@H]1Cc1ccc2c(c1F)CN(C1CCC(=O)NC1=O)C2=O (stereo partly drawn) [Example 304, 3-(5-(((2R,3S)-3-(sec-butylamino)tetrahydro-2H-pyran-2-yl)methyl)-4-fluoro-1-oxoisoindolin-2-yl)piperidine-2,6-dione]
DC50 (IKZF1): > 1000 nM
Dmax (IKZF2): 97%
DC50 (IKZF2): 3 nM

Structure (SMILES): N[C@H]1CCCC[C@@H]1Cc1ccc2c(c1)CN(C1CCC(=O)NC1=O)C2=O (stereo partly drawn) [Example 1, 3-(5-(((1R,2S)-2-aminocyclohexyl)methyl)-1-oxoisoindolin-2-yl)piperidine-2,6-dione]
Dmax (IKZF1): 30%
DC50 (IKZF1): 933 nM
Dmax (IKZF2): 82%
DC50 (IKZF2): 225 nM

Structure (SMILES): O=C1CCC(N2Cc3cc(C[C@H]4CC(CO)CC[C@@H]4NC4CCCCC4)ccc3C2=O)C(=O)N1 (single isomer, unassigned) [Example 383]
DC50 (IKZF1): > 1000 nM
DC50 (IKZF2): 226 nM
IKZF2 Dmax (IKZF2): 77%

Structure (SMILES): CC(CCC(F)F)N[C@H]1CCCO[C@@H]1Cc1ccc2c(c1F)CN(C1CCC(=O)NC1=O)C2=O (stereo partly drawn) [Example 320, 3-(5-(((2R,3S)-3-((5,5-difluoropentan-2-yl)amino)tetrahydro-2H-pyran-2-yl)methyl)-4-fluoro-1-oxoisoindolin-2-yl)piperidine-2,6-dione]
DC50 (IKZF1): > 1000 nM
Dmax (IKZF2): 93%
DC50 (IKZF2): 11 nM

Structure (SMILES): O=C1CCC(N2Cc3cc(C[C@H]4CCC[C@H](O)[C@@H]4NC4CCC(F)(F)CC4)ccc3C2=O)C(=O)N1 (single isomer, unassigned) [Example 151]
DC50 (IKZF1): > 1000 nM
Dmax (IKZF2): 87%
DC50 (IKZF2): 22 nM

Structure (SMILES): CS(=O)(=O)c1ccc(CN[C@H]2CCCC[C@@H]2Cc2ccc3c(c2)CN(C2CCC(=O)NC2=O)C3=O)cc1 (stereo partly drawn) [Example 12, 3-(5-(((1R,2S)-2-((4-(methylsulfonyl)benzyl)amino)cyclohexyl)methyl)-1-oxoisoindolin-2-yl)piperidine-2,6-dione]
DC50 (IKZF1): > 1000 nM
Dmax (IKZF2): 85%
DC50 (IKZF2): 106 nM

Structure (SMILES): O=C1CCC(N2Cc3cc(C[C@H]4CCCC[C@@H]4NC4CCCCC45CC5)ccc3C2=O)C(=O)N1 (stereo partly shown) [Example 229]
DC50 (IKZF1): > 1000 nM
DC50 (IKZF2): 8 nM
IKZF2 Dmax (IKZF2): 97%

Structure (SMILES): CCC(N[C@H]1CCCC[C@@H]1Cc1ccc2c(c1)CN(C1CCC(=O)NC1=O)C2=O)C1CC1 (single isomer, unassigned) [Example 233]
DC50 (IKZF1): > 1000 nM
DC50 (IKZF2): 3 nM
IKZF2 Dmax (IKZF2): 97%

Structure (SMILES): O=C1CC[C@H](N2Cc3c(ccc(C[C@H]4OCCC[C@@H]4N[C@H]4CC[C@@H](C(F)F)CC4)c3F)C2=O)C(=O)N1 [Example 368]
DC50 (IKZF1): > 1000 nM
Dmax (IKZF2): 96%
DC50 (IKZF2): 8 nM

Structure (SMILES): Cn1ccc(CN[C@H]2CCCC[C@@H]2Cc2ccc3c(c2)CN(C2CCC(=O)NC2=O)C3=O)n1 (stereo partly drawn) [Example 38, 3-(5-(((1R,2S)-2-(((1-methyl-1H-pyrazol-3-yl)methyl)amino)cyclohexyl)methyl)-1-oxoisoindolin-2-yl)piperidine-2,6-dione]
DC50 (IKZF1): > 1000 nM
Dmax (IKZF2): 97%
DC50 (IKZF2): 192 nM

Structure (SMILES): CC(C)(C)CCN(CCC(C)(C)C)[C@H]1CCCC[C@@H]1Cc1ccc2c(c1F)CN(C1CCC(=O)NC1=O)C2=O (stereo partly drawn) [Example 90, 3-(5-(((1R,2S)-2-(bis(3,3-dimethylbutyl)amino)cyclohexyl)methyl)-4-fluoro-1-oxoisoindolin-2-yl)piperidine-2,6-dione]
DC50 (IKZF1): > 1000 nM
Dmax (IKZF2): 75%
DC50 (IKZF2): 69 nM

Structure (SMILES): O=C1CCC(N2Cc3cc(C[C@H]4CCCC[C@@H]4N4CC(OCc5ccccc5)C4)ccc3C2=O)C(=O)N1 (stereo partly drawn) [Example 33, 3-(5-(((1R,2S)-2-(3-(benzyloxy)azetidin-1-yl)cyclohexyl)methyl)-1-oxoisoindolin-2-yl)piperidine-2,6-dione]
DC50 (IKZF1): > 1000 nM
Dmax (IKZF2): 82%
DC50 (IKZF2): 18 nM

Structure (SMILES): [2H]c1c([2H])c([2H])c(CN(Cc2c([2H])c([2H])c([2H])c([2H])c2[2H])[C@H]2CCCC[C@@H]2Cc2ccc3c(c2)CN(C2CCC(=O)NC2=O)C3=O)c([2H])c1[2H] (stereo partly drawn) [Example 26, 3-(5-(((1R,2S)-2-(bis((phenyl-d5)methyl)amino)cyclohexyl)methyl)-1-oxoisoindolin-2-yl)piperidine-2,6-dione]
DC50 (IKZF1): > 1000 nM
Dmax (IKZF2): 57%
DC50 (IKZF2): 530 nM

The next compounds have a lower DC50 (IKZF1) than those just listed; values first:

Dmax (IKZF1): 51%
DC50 (IKZF1): 888 nM
Dmax (IKZF2): 95%
DC50 (IKZF2): 7 nM
Structure (SMILES): CCOC1CC(N[C@H]2CCCC[C@@H]2Cc2ccc3c(c2)CN(C2CCC(=O)NC2=O)C3=O)C1 (stereo partly shown) [Example 75]

DC50 (IKZF1): 168 nM
IKZF1 Dmax (IKZF1): 34%
DC50 (IKZF2): 2 nM
IKZF2 Dmax (IKZF2): 95%
Structure (SMILES): O=C1CCC(N2Cc3cc(C[C@H]4CCCC[C@@H]4NC4CCC(OC(F)(F)F)CC4)ccc3C2=O)C(=O)N1 (single isomer, unassigned) [Example 146]

DC50 (IKZF1): 79 nM
IKZF1 Dmax (IKZF1): 24%
DC50 (IKZF2): 10 nM
IKZF2 Dmax (IKZF2): 95%
Structure (SMILES): O=C1CCC(N2Cc3cc(C[C@H]4CCCC[C@@H]4NC4CCCC[C@@H]4F)ccc3C2=O)C(=O)N1 (stereo partly shown) [Example 106]

Dmax (IKZF1): 34%
DC50 (IKZF1): 43 nM
Dmax (IKZF2): 94%
DC50 (IKZF2): 9 nM
Structure (SMILES): CC(C)(CCN[C@H]1CCCC[C@@H]1Cc1ccc2c(c1)CN(C1CCC(=O)NC1=O)C2=O)C(F)(F)F (stereo partly shown) [Example 182]

Dmax (IKZF1): 34%
DC50 (IKZF1): 51 nM
Dmax (IKZF2): 98%
DC50 (IKZF2): 2 nM
Structure (SMILES): O=C1CCC(N2Cc3cc(C[C@H]4CCCC[C@@H]4NC4CCC(C(F)F)CC4)ccc3C2=O)C(=O)N1 (stereo partly shown) [Example 216]

Dmax (IKZF1): 40%
DC50 (IKZF1): 465 nM
DC50 (IKZF2): 23 nM
IKZF2 Dmax (IKZF2): 89%
Structure (SMILES): O=C1CCC(N2Cc3cc(C[C@H]4OCCC[C@@H]4NC4CCC(C(F)(F)F)CC4)ccc3C2=O)C(=O)N1 (single isomer, unassigned) [Example 357]

DC50 (IKZF1): 208 nM
IKZF1 Dmax (IKZF1): 39%
DC50 (IKZF2): 2 nM
IKZF2 Dmax (IKZF2): 96%
Structure (SMILES): C[C@H]1CCCC(N[C@H]2CCCC[C@@H]2Cc2ccc3c(c2)CN(C2CCC(=O)NC2=O)C3=O)C1 (stereo partly shown) [Example 237]

DC50 (IKZF1): 88 nM
IKZF1 Dmax (IKZF1): 28%
DC50 (IKZF2): 8 nM
IKZF2 Dmax (IKZF2): 98%
Structure (SMILES): O=C1CCC(N2Cc3c(ccc(C[C@H]4CCCC[C@@H]4NCC4COC4)c3F)C2=O)C(=O)N1 (stereo partly shown) [Example 186]

Dmax (IKZF1): 34%
DC50 (IKZF1): 42 nM
Dmax (IKZF2): 81%
DC50 (IKZF2): 29 nM
Structure (SMILES): O=C1CCC(N2Cc3cc(C[C@H]4CCCC[C@@H]4N4CC(Oc5ccccc5Cl)C4)ccc3C2=O)C(=O)N1 (stereo partly drawn) [Example 30, 3-(5-(((1R,2S)-2-(3-(2-chlorophenoxy)azetidin-1-yl)cyclohexyl)methyl)-1-oxoisoindolin-2-yl)piperidine-2,6-dione]
